Test results as given in ChEMBL document CHEMBL1201862, “PubChem BioAssay data set” (2004).
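The compound was tested at five concentrations on cells cultured in 96-well plates, with a 48-hour exposure period. Here, GI50 denotes the concentration required for 50% inhibition of growth.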 Activity calls are given as the source filed them. Cut-off read from the data, not from the text of the source: active = GI50 up to about 1.1 µM and inactive = higher.

What was measured:
Assay in all cases: NCI-60 cell line screen, 48 h
SK-MEL-2 = tested on: SK-MEL-2
Malme-3M = tested on: Malme-3M
MDA-MB-231 = tested on: MDA-MB-231
SNB-75 = tested on: SNB-75
HCC 2998 = tested on: HCC 2998
U-251 = tested on: U-251
DU-145 = tested on: DU-145
NCI-H522 = tested on: NCI-H522
MDA-MB-435 = tested on: MDA-MB-435
HCT-15 = tested on: HCT-15
OVCAR-4 = tested on: OVCAR-4
CAKI-1 = tested on: CAKI-1
ACHN = tested on: ACHN
OVCAR-5 = tested on: OVCAR-5
HL-60 = tested on: HL-60
MDA-N = tested on: MDA-N
HCT-116 = tested on: HCT-116
SW-620 = tested on: SW-620
SR = tested on: SR
RPMI-8226 = tested on: RPMI-8226

SMILES | GI50 (SK-MEL-2) | GI50 (Malme-3M) | GI50 (MDA-MB-231) | GI50 (SNB-75) | GI50 (HCC 2998) | GI50 (U-251) | GI50 (DU-145) | GI50 (NCI-H522) | GI50 (MDA-MB-435) | GI50 (HCT-15) [µM] | GI50 (OVCAR-4) | GI50 (CAKI-1) | GI50 (ACHN) | GI50 (OVCAR-5) | GI50 (HL-60) | GI50 (MDA-N) | GI50 (HCT-116) | GI50 (SW-620) | GI50 (SR) | GI50 (RPMI-8226)
Sc1nnc(COc2ccc(Cl)cc2)n1-c1ccccc1 | > 100 µM (inactive) | > 100 µM (inactive) | > 100 µM (inactive) | > 100 µM (inactive) | > 100 µM (inactive) | > 100 µM (inactive) | > 100 µM (inactive) | 5.4 µM (inactive) | > 100 µM (inactive) | > 100 | > 100 µM (inactive) | 17.5 µM (inactive) | > 100 µM (inactive) | > 100 µM (inactive) | > 100 µM (inactive) | > 100 µM (inactive) | 46.1 µM (inactive) | > 100 µM (inactive) |  | 
COc1ccccc1N=C(S)Nc1ccccn1 | > 100 µM (inactive) | > 100 µM (inactive) | > 100 µM (inactive) | 36.7 µM (inactive) |  | 58.5 µM (inactive) |  | 43.4 µM (inactive) | > 100 µM (inactive) | > 100 | > 100 µM (inactive) | > 100 µM (inactive) |  | > 100 µM (inactive) | > 100 µM (inactive) |  | > 100 µM (inactive) | > 100 µM (inactive) | > 100 µM (inactive) | > 100 µM (inactive)
O=CN/C=C/c1ccccc1 | > 100 µM (inactive) | > 100 µM (inactive) |  | > 100 µM (inactive) | > 100 µM (inactive) | > 100 µM (inactive) | > 100 µM (inactive) | > 100 µM (inactive) |  | > 100 | > 100 µM (inactive) | > 100 µM (inactive) | > 100 µM (inactive) | > 100 µM (inactive) | > 100 µM (inactive) |  | > 100 µM (inactive) | > 51.2 µM (inactive) | > 94.8 µM (inactive) | > 100 µM (inactive)
COc1cc(C2C3C=CC=C4CC=CC(=C43)C3CCC(=O)N32)cc(OC)c1OC (configuration not stated) | > 100 µM (inactive) |  | > 100 µM (inactive) | > 100 µM (inactive) |  | > 100 µM (inactive) | > 100 µM (inactive) | > 100 µM (inactive) | > 100 µM (inactive) | > 100 |  |  | > 100 µM (inactive) | > 100 µM (inactive) | 64.1 µM (inactive) |  | 94.8 µM (inactive) | > 100 µM (inactive) | > 100 µM (inactive) | > 100 µM (inactive)
COc1ccc(C(O)C(c2ccc(OCc3ccccc3)cc2)c2ccc(OCc3ccccc3)cc2)cc1 (configuration not stated) | > 100 µM (inactive) | > 100 µM (inactive) |  | > 100 µM (inactive) | > 100 µM (inactive) | > 100 µM (inactive) |  | > 100 µM (inactive) |  | > 100 | > 100 µM (inactive) | > 100 µM (inactive) | > 100 µM (inactive) | > 100 µM (inactive) | > 100 µM (inactive) |  | > 100 µM (inactive) | > 100 µM (inactive) | > 100 µM (inactive) | > 100 µM (inactive)
O=C(O/N=C1/CCC/C1=C\c1ccccc1)c1ccc(Cl)cc1 | > 100 µM (inactive) | > 100 µM (inactive) |  | 21.7 µM (inactive) | > 100 µM (inactive) | 46.6 µM (inactive) |  | > 58.2 µM (inactive) |  | > 100 | 25.8 µM (inactive) | > 52.1 µM (inactive) | 60.5 µM (inactive) | > 100 µM (inactive) | > 56.1 µM (inactive) |  | > 100 µM (inactive) | > 100 µM (inactive) | > 82.4 µM (inactive) | > 65.9 µM (inactive)
O=C(CSCC(=O)N/N=C\c1ccc(-c2ccccc2)cc1)N/N=C\c1ccc(-c2ccccc2)cc1 | 16 µM (inactive) | 27.2 µM (inactive) | 10.7 µM (inactive) | 16.3 µM (inactive) |  | 17.7 µM (inactive) | 33 µM (inactive) | 13.5 µM (inactive) | 18.8 µM (inactive) | 26.1 | 20.7 µM (inactive) | 40.5 µM (inactive) | 23.9 µM (inactive) | 29.6 µM (inactive) |  |  | 9.27 µM (inactive) | 16.3 µM (inactive) | 6.58 µM (inactive) | 
O=C1Nc2ccc(Br)cc2/C1=N/S(=O)(=O)O | 6.61 µM (inactive) | 26.1 µM (inactive) | 16.3 µM (inactive) | 24.5 µM (inactive) | 51.3 µM (inactive) | 13.6 µM (inactive) | 57.1 µM (inactive) | 31.3 µM (inactive) | 6.38 µM (inactive) | 21.9 | 19 µM (inactive) | 35.6 µM (inactive) | 45.9 µM (inactive) | 27.6 µM (inactive) | 12.9 µM (inactive) | 11.4 µM (inactive) | 10.6 µM (inactive) | 18.2 µM (inactive) |  | 14.1 µM (inactive)
CC(C)NC(=O)OCc1c(COC(=O)NC(C)C)c(-c2cc[n+](COC(=O)CC(C)(C)C)cc2)n2c1CCC2 |  |  | > 100 µM (inactive) |  | > 100 µM (inactive) | > 100 µM (inactive) |  | > 100 µM (inactive) |  | > 100 | > 100 µM (inactive) | > 100 µM (inactive) |  |  | > 100 µM (inactive) | > 100 µM (inactive) |  | > 100 µM (inactive) | 42.4 µM (inactive) | > 100 µM (inactive)
COc1cc(C(C)O)c[n+](Cc2ccccc2)c1 (configuration not stated) | > 100 µM (inactive) | > 100 µM (inactive) |  | > 100 µM (inactive) | > 100 µM (inactive) | > 100 µM (inactive) |  | > 100 µM (inactive) |  | > 100 | > 100 µM (inactive) | > 100 µM (inactive) | > 100 µM (inactive) | > 100 µM (inactive) | > 100 µM (inactive) |  | > 100 µM (inactive) | > 100 µM (inactive) | > 100 µM (inactive) | > 100 µM (inactive)
CC1=NNC(=O)C1C1CC(c2c[nH]c3ccccc23)=NNC1=O (configuration not stated) | > 100 µM (inactive) | > 100 µM (inactive) | > 100 µM (inactive) | 28.4 µM (inactive) |  | > 100 µM (inactive) | > 100 µM (inactive) | > 100 µM (inactive) | > 100 µM (inactive) | > 100 |  | > 100 µM (inactive) | > 100 µM (inactive) | > 100 µM (inactive) | > 100 µM (inactive) | > 100 µM (inactive) | > 100 µM (inactive) | > 100 µM (inactive) |  | > 100 µM (inactive)
Cc1cn([C@H]2C[C@@H]3[C@@H](COC(CCl)N3O)O2)c(=O)[nH]c1=O (some centres not stated) | > 100 µM (inactive) | 41.3 µM (inactive) |  | 87.9 µM (inactive) |  | > 100 µM (inactive) | > 100 µM (inactive) | > 100 µM (inactive) | > 100 µM (inactive) | > 100 | > 100 µM (inactive) | > 100 µM (inactive) |  | > 100 µM (inactive) | > 100 µM (inactive) | > 100 µM (inactive) | > 100 µM (inactive) | > 100 µM (inactive) | > 100 µM (inactive) | > 100 µM (inactive)
COc1cc(S(=O)(=O)Nc2ccc(-c3csc(N4C(=O)CSC4c4cccc(Oc5ccccc5)c4)n3)cc2)ccc1Cl (configuration not stated) |  | 43.4 µM (inactive) |  | 58.1 µM (inactive) |  |  | 48.4 µM (inactive) | 24.2 µM (inactive) | 33.5 µM (inactive) | 61.7 | 52.6 µM (inactive) | > 100 µM (inactive) | > 100 µM (inactive) | > 100 µM (inactive) | 21.1 µM (inactive) | 23.9 µM (inactive) | 29.9 µM (inactive) | 43.8 µM (inactive) | 33.7 µM (inactive) | 39.2 µM (inactive)
CCCC(=O)OC[n+]1ccc(-c2c(COC(=O)NC(C)C)c(COC(=O)NC(C)C)c3n2CCC3)cc1 | > 100 µM (inactive) | > 100 µM (inactive) | > 100 µM (inactive) | 87.3 µM (inactive) | > 100 µM (inactive) | > 100 µM (inactive) | 31.2 µM (inactive) | > 100 µM (inactive) | > 100 µM (inactive) | > 100 | > 100 µM (inactive) | 21.8 µM (inactive) | 15.4 µM (inactive) | > 100 µM (inactive) | 33.3 µM (inactive) |  | > 100 µM (inactive) | > 100 µM (inactive) | 4.99 µM (inactive) | > 100 µM (inactive)
CCOC(=O)N(CC)c1c(C(F)(F)F)cc(-c2ccccc2)[nH]c1=O | 72.6 µM (inactive) |  | > 100 µM (inactive) |  | 54.2 µM (inactive) | 55.2 µM (inactive) | 72.3 µM (inactive) |  | 22.8 µM (inactive) | 40.6 | 30.8 µM (inactive) | > 100 µM (inactive) | 58.6 µM (inactive) | > 100 µM (inactive) | 13.6 µM (inactive) | 23.3 µM (inactive) | 48.5 µM (inactive) | 54.7 µM (inactive) |  | 14.5 µM (inactive)
O=C1Nc2ccc(Br)cc2/C1=C/C(=O)c1ccccc1 | 16 µM (inactive) | 6.37 µM (inactive) | 15.5 µM (inactive) | 17.3 µM (inactive) | 15.1 µM (inactive) | 17.9 µM (inactive) | 10.2 µM (inactive) | 2.22 µM (inactive) | 16.2 µM (inactive) | 2.49 | 13.7 µM (inactive) | 7.74 µM (inactive) | 1.87 µM (inactive) | 22.5 µM (inactive) | 2.83 µM (inactive) |  | 4.22 µM (inactive) | 2.25 µM (inactive) | 4.37 µM (inactive) | 2.46 µM (inactive)
O=c1oc2ccccc2c(O)c1C1c2c(c3ccccc3oc2=O)Oc2c1c(=O)oc1ccccc21 | 51.6 µM (inactive) | > 100 µM (inactive) | 32.4 µM (inactive) | 57.1 µM (inactive) | 18.7 µM (inactive) | 38.1 µM (inactive) | 53.5 µM (inactive) | 39 µM (inactive) | 28.7 µM (inactive) | 27.9 | 32.9 µM (inactive) | 30.3 µM (inactive) | 28.4 µM (inactive) |  |  | 18.9 µM (inactive) | 36.6 µM (inactive) | 38.2 µM (inactive) |  | 31.7 µM (inactive)
